Assay results from patent publication US20080009418A1, “Selective Inhibitors” (Alchemia LTD., priority 2004, published 2008).

Legend:
Human κ-Opioid (KOP) = target: T1, Human κ-Opioid (KOP) (Homo sapiens, UniProt P41145); test: Radioligand binding, human κ-opioid (KOP) membranes, filtration, [3H]-Diprenorphine; details: compound at 10 μM; human κ-opioid (KOP) membranes
T1 construct: purchased Perkin Elmer Biosignal
Summary of the method: (§1)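 Filtration binding on cloned human receptor membranes (1 Unit/well), [125I]-Substance P for NK1 and [3H]-Diprenorphine for KOP, 1 h at room temperature. Filters PEI-presoaked, washed with cold 50 mM Tris-HCl pH 7.4, counted by scintillation; percent inhibition calculated, reference ligand defining non-specific binding.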

Human δ-opioid (DOP) = target: T2, Human δ-opioid (DOP) (Homo sapiens, UniProt P41143); test: Radioligand binding, human δ-opioid (DOP) membranes, FlashPlate, [3H]-Bremazocine; details: compound at 10 μM; human δ-opioid (DOP) membranes
T2 construct: purchased Perkin Elmer Biosignal
Summary of the method: (§2)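 Cloned human receptor membranes were coated onto FlashPlate wells and incubated with radioligand and compound (added from a 0.5 mM DMSO daughter plate) for 1 hour at room temperature in the dark. Scintillation counting gave percent inhibition, with DMSO defining total and reference ligand defining non-specific binding.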

Human opioid (ORL1) = target: T3, Human opioid (ORL1) (Homo sapiens, UniProt P41146); test: Radioligand binding, human opioid ORL1 membranes, FlashPlate, [125I]-Nociceptin; details: compound at 10 μM; human ORL1 membranes
T3 construct: purchased Perkin Elmer Biosignal
Summary of the method: as §2

[1] = target: T4, Human neuropeptide Y (NPY-Y1) (Homo sapiens, UniProt P25929); test: Radioligand binding, human neuropeptide Y NPY-Y1 membranes, FlashPlate, [125I]-PYY; details: compound at 10 μM; human NPY-Y1 membranes
T4 construct: purchased Perkin Elmer Biosignal
T4 sequence (P25929 1-384): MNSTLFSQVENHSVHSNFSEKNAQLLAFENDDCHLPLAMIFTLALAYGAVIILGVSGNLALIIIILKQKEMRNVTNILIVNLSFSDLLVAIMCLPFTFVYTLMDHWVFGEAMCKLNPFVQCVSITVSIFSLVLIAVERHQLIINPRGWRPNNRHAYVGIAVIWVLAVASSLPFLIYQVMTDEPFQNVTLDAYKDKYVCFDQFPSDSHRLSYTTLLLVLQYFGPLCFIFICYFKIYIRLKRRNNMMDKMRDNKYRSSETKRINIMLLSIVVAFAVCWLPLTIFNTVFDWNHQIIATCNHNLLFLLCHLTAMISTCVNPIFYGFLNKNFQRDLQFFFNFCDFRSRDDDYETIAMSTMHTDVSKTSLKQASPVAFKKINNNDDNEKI
Summary of the method: as §2

[2] = target: T5, Human melanin-concentrating hormone (MCH1) (Homo sapiens, UniProt Q99705); test: Radioligand binding, human melanin-concentrating hormone MCH1 membranes, FlashPlate, [125I]-S36057; details: compound at 10 μM; human MCH1 membranes
T5 construct: purchased Perkin Elmer Biosignal
Summary of the method: as §2

Human μ-opioid (MOP) = target: T6, Human μ-opioid (MOP) (Homo sapiens, UniProt P35372); test: Radioligand binding, human μ-opioid (MOP) membranes, FlashPlate, [3H]-Naloxone; details: compound at 10 μM; human μ-opioid (MOP) membranes
T6 construct: purchased Perkin Elmer Biosignal
Summary of the method: as §2

Human Melanocortin (MC4) = target: T7, Human Melanocortin (MC4) (Homo sapiens, UniProt P32245); test: Radioligand binding, human melanocortin MC4 membranes, FlashPlate, [125I]-NDP-αMSH; details: compound at 10 μM; human melanocortin MC4 membranes
T7 construct: purchased Perkin Elmer Biosignal
Summary of the method: as §2

Mouse urotensin (mUR2) = target: T8, Mouse urotensin (mUR2) (Mus musculus, UniProt Q8VIH9); test: Radioligand binding, mouse urotensin mUR2 membranes, FlashPlate, [125I]-Urotensin II; details: compound at 10 μM; mouse urotensin mUR2 membranes
T8 construct: purchased Perkin Elmer Biosignal
T8 sequence (Q8VIH9 1-385): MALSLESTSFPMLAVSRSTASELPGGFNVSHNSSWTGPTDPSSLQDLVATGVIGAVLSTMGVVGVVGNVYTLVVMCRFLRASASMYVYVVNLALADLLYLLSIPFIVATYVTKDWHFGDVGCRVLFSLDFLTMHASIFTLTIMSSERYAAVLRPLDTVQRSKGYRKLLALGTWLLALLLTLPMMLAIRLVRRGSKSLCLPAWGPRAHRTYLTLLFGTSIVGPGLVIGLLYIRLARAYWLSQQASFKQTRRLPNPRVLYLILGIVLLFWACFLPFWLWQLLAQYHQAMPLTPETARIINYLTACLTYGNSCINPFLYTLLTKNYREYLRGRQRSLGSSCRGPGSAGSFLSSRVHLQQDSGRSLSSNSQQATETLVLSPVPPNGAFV
Summary of the method: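 Cloned mouse urotensin (mUR2) receptor membranes from Perkin Elmer Biosignal were immobilized in FlashPlate microplates using a proprietary coating. Each well got 19.5 μl buffer, then 0.5 μl of DMSO, reference ligand, or compound. Adding 5 μl of [125I]-Urotensin II, diluted to 5× final concentration in binding buffer, started binding. Plates were sealed with TopSeal-A and incubated 1 hour at room temperature in the dark. Wells were counted for 30 seconds each on a TopCount after a 60-second delay, and percentage inhibition was calculated.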

Human melanocortin (MC5) = target: T9, Human melanocortin (MC5) (Homo sapiens, UniProt P33032); test: Radioligand binding, human melanocortin MC5 membranes, FlashPlate, [125I]-NDP-αMSH; details: compound at 10 μM; human melanocortin MC5 membranes
T9 construct: purchased Perkin Elmer Biosignal
Summary of the method: as §2

Human neurokinin (NK1) = target: T10, Human neurokinin (NK1) (Homo sapiens, UniProt P25103); test: Radioligand binding, human neurokinin NK1 membranes, filtration, [125I]-Substance P; details: compound at 10 μM; human neurokinin NK1 membranes
T10 construct: purchased Perkin Elmer Biosignal
Summary of the method: as §1

Human Melanocortin (MC3) = target: T11, Human Melanocortin (MC3) (Homo sapiens, UniProt P41968); test: Radioligand binding, human melanocortin MC3 membranes, FlashPlate, [125I]-NDP-αMSH; details: compound at 10 μM; human melanocortin MC3 membranes
T11 construct: purchased Perkin Elmer Biosignal
Summary of the method: as §2

T10 sequence (P25103 whole entry): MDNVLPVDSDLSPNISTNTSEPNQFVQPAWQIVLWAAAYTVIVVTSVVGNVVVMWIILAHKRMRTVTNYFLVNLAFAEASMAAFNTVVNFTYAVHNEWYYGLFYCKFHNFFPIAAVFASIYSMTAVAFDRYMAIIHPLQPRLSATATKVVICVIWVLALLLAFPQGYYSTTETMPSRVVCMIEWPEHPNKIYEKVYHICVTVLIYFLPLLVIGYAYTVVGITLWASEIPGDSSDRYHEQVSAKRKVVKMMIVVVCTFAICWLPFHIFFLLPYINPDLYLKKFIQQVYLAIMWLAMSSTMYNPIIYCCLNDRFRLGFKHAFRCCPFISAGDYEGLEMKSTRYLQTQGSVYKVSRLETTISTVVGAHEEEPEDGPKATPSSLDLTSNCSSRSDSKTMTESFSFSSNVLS
T1 sequence (P41145 whole entry): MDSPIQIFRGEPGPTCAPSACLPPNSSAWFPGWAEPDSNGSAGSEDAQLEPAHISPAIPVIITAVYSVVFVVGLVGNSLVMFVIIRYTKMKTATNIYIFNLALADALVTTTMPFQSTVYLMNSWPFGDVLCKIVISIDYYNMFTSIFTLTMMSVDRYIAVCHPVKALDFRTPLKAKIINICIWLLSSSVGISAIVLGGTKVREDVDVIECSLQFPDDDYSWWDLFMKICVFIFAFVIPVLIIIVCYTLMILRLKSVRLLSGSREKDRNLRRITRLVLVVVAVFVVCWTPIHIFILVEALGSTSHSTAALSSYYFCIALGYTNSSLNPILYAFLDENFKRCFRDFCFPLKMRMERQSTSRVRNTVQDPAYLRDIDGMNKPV
T3 sequence (P41146 whole entry): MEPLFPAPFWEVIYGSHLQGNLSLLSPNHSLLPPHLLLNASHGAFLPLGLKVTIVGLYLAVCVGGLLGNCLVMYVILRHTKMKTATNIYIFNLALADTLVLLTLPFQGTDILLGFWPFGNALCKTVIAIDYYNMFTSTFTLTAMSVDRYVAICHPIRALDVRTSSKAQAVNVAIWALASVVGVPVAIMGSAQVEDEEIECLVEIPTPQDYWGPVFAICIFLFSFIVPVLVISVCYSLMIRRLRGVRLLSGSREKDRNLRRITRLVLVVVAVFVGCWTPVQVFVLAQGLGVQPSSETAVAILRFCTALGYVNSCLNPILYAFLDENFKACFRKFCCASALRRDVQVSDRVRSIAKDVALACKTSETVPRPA
T9 sequence (P33032 whole entry): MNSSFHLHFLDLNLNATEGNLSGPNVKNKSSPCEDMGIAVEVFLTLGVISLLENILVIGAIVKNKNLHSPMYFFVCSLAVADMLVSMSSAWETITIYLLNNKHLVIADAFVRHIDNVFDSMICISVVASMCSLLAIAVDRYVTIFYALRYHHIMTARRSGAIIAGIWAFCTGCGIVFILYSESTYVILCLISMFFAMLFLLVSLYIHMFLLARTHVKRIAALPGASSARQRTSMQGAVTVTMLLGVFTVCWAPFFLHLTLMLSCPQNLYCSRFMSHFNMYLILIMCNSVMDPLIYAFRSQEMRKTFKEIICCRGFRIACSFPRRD
T7 sequence (P32245 whole entry): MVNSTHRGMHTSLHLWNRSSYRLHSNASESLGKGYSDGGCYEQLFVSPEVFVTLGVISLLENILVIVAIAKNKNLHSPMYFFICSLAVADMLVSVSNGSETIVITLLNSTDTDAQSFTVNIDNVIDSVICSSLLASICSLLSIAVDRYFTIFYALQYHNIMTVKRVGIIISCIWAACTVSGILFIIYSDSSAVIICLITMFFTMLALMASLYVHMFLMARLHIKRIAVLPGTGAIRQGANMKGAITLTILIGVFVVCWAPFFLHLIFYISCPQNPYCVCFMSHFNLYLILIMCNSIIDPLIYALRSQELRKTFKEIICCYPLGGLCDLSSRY
T11 sequence (P41968 whole entry): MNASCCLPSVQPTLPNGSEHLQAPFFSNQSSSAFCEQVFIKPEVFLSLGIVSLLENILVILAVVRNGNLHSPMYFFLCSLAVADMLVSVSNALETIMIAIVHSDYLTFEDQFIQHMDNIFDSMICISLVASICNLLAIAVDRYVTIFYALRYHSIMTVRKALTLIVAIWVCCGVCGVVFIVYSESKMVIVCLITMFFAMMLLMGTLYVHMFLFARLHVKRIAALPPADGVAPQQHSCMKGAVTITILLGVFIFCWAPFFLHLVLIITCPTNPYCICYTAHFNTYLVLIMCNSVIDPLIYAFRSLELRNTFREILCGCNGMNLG
T6 sequence (P35372 whole entry): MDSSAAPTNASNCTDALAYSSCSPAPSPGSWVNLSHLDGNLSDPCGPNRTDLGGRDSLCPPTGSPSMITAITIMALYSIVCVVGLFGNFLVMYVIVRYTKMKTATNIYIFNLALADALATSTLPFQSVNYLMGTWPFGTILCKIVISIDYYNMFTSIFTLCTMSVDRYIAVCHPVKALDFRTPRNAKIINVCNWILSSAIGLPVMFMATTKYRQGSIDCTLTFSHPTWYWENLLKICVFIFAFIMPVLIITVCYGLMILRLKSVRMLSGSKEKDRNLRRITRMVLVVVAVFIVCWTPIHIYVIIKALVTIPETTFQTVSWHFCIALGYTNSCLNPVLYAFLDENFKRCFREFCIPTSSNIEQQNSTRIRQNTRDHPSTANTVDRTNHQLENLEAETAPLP
T2 sequence (P41143 whole entry): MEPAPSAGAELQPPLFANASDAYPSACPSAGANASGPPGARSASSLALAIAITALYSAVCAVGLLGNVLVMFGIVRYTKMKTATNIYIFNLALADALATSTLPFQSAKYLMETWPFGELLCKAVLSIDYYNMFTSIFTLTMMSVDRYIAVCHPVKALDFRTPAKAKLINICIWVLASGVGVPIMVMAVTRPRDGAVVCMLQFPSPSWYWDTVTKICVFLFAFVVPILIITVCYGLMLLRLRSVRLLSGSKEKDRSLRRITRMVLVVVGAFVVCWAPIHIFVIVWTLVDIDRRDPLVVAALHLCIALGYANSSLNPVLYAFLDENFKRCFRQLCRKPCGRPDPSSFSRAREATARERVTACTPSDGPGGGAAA
T5 sequence (Q99705 whole entry): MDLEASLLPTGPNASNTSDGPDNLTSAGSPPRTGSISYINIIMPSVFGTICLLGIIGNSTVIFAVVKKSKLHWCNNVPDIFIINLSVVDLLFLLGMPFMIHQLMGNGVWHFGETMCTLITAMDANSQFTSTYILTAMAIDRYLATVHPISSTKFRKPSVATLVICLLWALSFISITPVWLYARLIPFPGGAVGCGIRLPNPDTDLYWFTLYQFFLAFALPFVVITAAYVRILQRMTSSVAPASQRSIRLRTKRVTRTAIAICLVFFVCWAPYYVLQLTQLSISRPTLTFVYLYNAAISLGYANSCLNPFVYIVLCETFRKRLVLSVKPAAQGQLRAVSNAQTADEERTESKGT

Row | SMILES | A2 radioligand binding inhibition (Human κ-Opioid (KOP)) | A1 radioligand binding inhibition (Human δ-opioid (DOP)) | A10 radioligand binding inhibition (Human opioid (ORL1)) | A9 radioligand binding inhibition [1] | A6 radioligand binding inhibition [2] | A7 radioligand binding inhibition (Human μ-opioid (MOP)) | A4 radioligand binding inhibition (Human Melanocortin (MC4)) | A11 radioligand binding inhibition (Mouse urotensin (mUR2)) | A5 radioligand binding inhibition (Human melanocortin (MC5)) | A8 radioligand binding inhibition (Human neurokinin (NK1)) | A3 radioligand binding inhibition (Human Melanocortin (MC3))
1 | COC[C@H]1OC(OCCc2ccccc2)[C@H](NC(=O)CCCN)[C@@H](OCc2ccc(-c3ccccc3)cc2)[C@@H]1O (stereo partly drawn) [compound 42] | − (“−” indicates less than 50% inhibition at 10 μM) | − (“−” indicates less than 50% inhibition at 10 μM) | − (“−” indicates less than 50% inhibition at 10 μM) | − (“−” indicates less than 50% inhibition at 10 μM) | − (“−” indicates less than 50% inhibition at 10 μM) | − (“−” indicates less than 50% inhibition at 10 μM) | − (“−” indicates less than 50% inhibition at 10 μM) | − (“−” indicates less than 50% inhibition at 10 μM) | + (“+” indicates greater than 50% inhibition at 10 μM) | − (“−” indicates less than 50% inhibition at 10 μM) | − (“−” indicates less than 50% inhibition at 10 μM)
2 | COC[C@H]1OC(OCCc2ccccc2)[C@H](NC(=O)CCCNC(=N)N)[C@@H](OCc2ccc(-c3ccccc3)cc2)[C@@H]1O (stereo partly drawn) [compound 43] | + (“+” indicates greater than 50% inhibition at 10 μM) | − (“−” indicates less than 50% inhibition at 10 μM) | − (“−” indicates less than 50% inhibition at 10 μM) | − (“−” indicates less than 50% inhibition at 10 μM) | + (“+” indicates greater than 50% inhibition at 10 μM) | + (“+” indicates greater than 50% inhibition at 10 μM) | + (“+” indicates greater than 50% inhibition at 10 μM) | − (“−” indicates less than 50% inhibition at 10 μM) | + (“+” indicates greater than 50% inhibition at 10 μM) | + (“+” indicates greater than 50% inhibition at 10 μM) | + (“+” indicates greater than 50% inhibition at 10 μM)
3 | COC[C@H]1OC(OCCc2ccccc2)[C@H](NC(=O)CNC(=N)N)[C@@H](OCc2ccc3ccccc3c2)[C@@H]1O (stereo partly drawn) [compound 44] | − (“−” indicates less than 50% inhibition at 10 μM) | − (“−” indicates less than 50% inhibition at 10 μM) | − (“−” indicates less than 50% inhibition at 10 μM) | − (“−” indicates less than 50% inhibition at 10 μM) | − (“−” indicates less than 50% inhibition at 10 μM) | − (“−” indicates less than 50% inhibition at 10 μM) | + (“+” indicates greater than 50% inhibition at 10 μM) | − (“−” indicates less than 50% inhibition at 10 μM) | + (“+” indicates greater than 50% inhibition at 10 μM) | − (“−” indicates less than 50% inhibition at 10 μM) | − (“−” indicates less than 50% inhibition at 10 μM)
4 | COC[C@H]1OC(OCCc2ccccc2)[C@H](NC(=O)CCNC(=N)N)[C@@H](OCc2ccc3ccccc3c2)[C@@H]1O (stereo partly drawn) [compound 45] | − (“−” indicates less than 50% inhibition at 10 μM) | − (“−” indicates less than 50% inhibition at 10 μM) | − (“−” indicates less than 50% inhibition at 10 μM) | − (“−” indicates less than 50% inhibition at 10 μM) | − (“−” indicates less than 50% inhibition at 10 μM) | − (“−” indicates less than 50% inhibition at 10 μM) | + (“+” indicates greater than 50% inhibition at 10 μM) | − (“−” indicates less than 50% inhibition at 10 μM) | − (“−” indicates less than 50% inhibition at 10 μM) | + (“+” indicates greater than 50% inhibition at 10 μM) | − (“−” indicates less than 50% inhibition at 10 μM)
5 | COC[C@H]1OC(OCCc2ccccc2)[C@H](NC(=O)CCNC(=N)N)[C@@H](OCc2ccccc2)[C@@H]1O (stereo partly drawn) [compound 46] | − (“−” indicates less than 50% inhibition at 10 μM) | − (“−” indicates less than 50% inhibition at 10 μM) | − (“−” indicates less than 50% inhibition at 10 μM) | − (“−” indicates less than 50% inhibition at 10 μM) | − (“−” indicates less than 50% inhibition at 10 μM) | − (“−” indicates less than 50% inhibition at 10 μM) | − (“−” indicates less than 50% inhibition at 10 μM) | − (“−” indicates less than 50% inhibition at 10 μM) | − (“−” indicates less than 50% inhibition at 10 μM) | + (“+” indicates greater than 50% inhibition at 10 μM) | − (“−” indicates less than 50% inhibition at 10 μM)
6 | COC[C@H]1OC(OCCc2ccccc2)[C@H](NC(=O)CCCN)[C@@H](OCc2ccccc2)[C@@H]1O (stereo partly drawn) [compound 47] | − (“−” indicates less than 50% inhibition at 10 μM) | − (“−” indicates less than 50% inhibition at 10 μM) | − (“−” indicates less than 50% inhibition at 10 μM) | − (“−” indicates less than 50% inhibition at 10 μM) | − (“−” indicates less than 50% inhibition at 10 μM) | − (“−” indicates less than 50% inhibition at 10 μM) | − (“−” indicates less than 50% inhibition at 10 μM) | − (“−” indicates less than 50% inhibition at 10 μM) | − (“−” indicates less than 50% inhibition at 10 μM) | + (“+” indicates greater than 50% inhibition at 10 μM) | − (“−” indicates less than 50% inhibition at 10 μM)
